Values after ≈ are worked out from the molar mass of the structure shown. Where two headings read alike, the source gives them in different places.
Columns and labels:
Klebs.pneumo. 4200 = assay: In vivo activity (ED50) against Klebs.pneumo. 4200
E.coli 12140 = assay: In vivo activity (ED50) against E.coli 12140
Proteus morgani 179 = assay: In vitro antibacterial activity (MIC); assay type: cell-based; conditions: Proteus morgani 179, in vitro
Method: (§1) The compounds of this invention have antibacterial activity against Gram-positive and Gram-negative organisms. Minimum inhibitory concentrations (MIC's) ranged from 0.4 to >200 μg/ml in in vitro testing.

Strep. faecalis HH 34358 = assay: In vitro antibacterial activity (MIC); assay type: cell-based; conditions: Enterococcus faecalis, HH34358; Strep. faecalis HH 34358, in vitro
Method: as §1

S.aureus SK 23390 = assay: In vitro antibacterial activity (MIC); assay type: cell-based; conditions: Staphylococcus aureus, SK23390
Method: as §1

Kleb. pneumo. SK 4200 = assay: In vitro antibacterial activity (MIC); assay type: cell-based
Method: as §1

S.aureus HH 127 = assay: In vitro antibacterial activity (MIC); assay type: cell-based; conditions: Staphylococcus aureus, HH127
Method: as §1

E. coli HH 33779 = assay: In vitro antibacterial activity (MIC); assay type: cell-based; conditions: Escherichia coli, HH33779
Method: as §1

S.aureus Villaluz = assay: In vitro antibacterial activity (MIC); assay type: cell-based; conditions: Staphylococcus aureus
Method: as §1

[1] = test system: Entero. aerog. ATCC 13048; assay: In vitro antibacterial activity (MIC); assay type: cell-based
Method: as §1

E.coli SK 12140 = assay: In vitro antibacterial activity (MIC); assay type: cell-based; conditions: Escherichia coli, SK12140
Method: as §1

Kleb. pneumo. SK 1200 = assay: In vitro antibacterial activity (MIC); assay type: cell-based
Method: as §1

[2] = po, Klebs.pneumo. 4200, p.o., read-out: ED50
[3] = sc, Klebs.pneumo. 4200, s.c., read-out: ED50
[4] = Escherichia coli, 12140, po, E.coli 12140, p.o.
[5] = Escherichia coli, 12140, sc, E.coli 12140, s.c.
[6] = S.aureus SK 23390, in vitro, read-out: MIC
[7] = Kleb. pneumo. SK 4200, in vitro, read-out: MIC
[8] = S.aureus HH 127, in vitro, read-out: MIC
[9] = E. coli HH 33779, in vitro, read-out: MIC
[10] = Entero. aerog. ATCC 13048, in vitro, read-out: MIC
[11] = E.coli SK 12140, in vitro, read-out: MIC
[12] = Kleb. pneumo. SK 1200, in vitro, read-out: MIC

N[C@@H](C(=O)NC1C(=O)N2C(C(=O)O)=C(CSc3c[nH]nn3)CSC12)c1ccc(OCC(=O)O)cc1 (stereo partly drawn) [Compound No. 03326, 7-[D-α-Amino-α-(4'-carboxymethoxyphenyl)acetamido]-3-(1,2,3-triazol-4-ylthiomethyl)-3-cephem-4-carboxylic acid]
ED50 (Klebs.pneumo. 4200; [2]): 17.7 mg/kg | ED50 (Klebs.pneumo. 4200; [3]): 4.6 mg/kg | ED50 (E.coli 12140; [4]): 25 mg/kg | ED50 (E.coli 12140; [5]): 8.4 mg/kg | MIC (Proteus morgani 179; read-out: MIC): 200 mg/L (≈ 384 µM) | MIC (Strep. faecalis HH 34358): 200 mg/L (≈ 384 µM) | MIC (S.aureus SK 23390; [6]): 100 mg/L (≈ 192 µM) | MIC (Kleb. pneumo. SK 4200; [7]): 6.3 mg/L (≈ 12.1 µM) | MIC (S.aureus HH 127; [8]): 12.5 mg/L (≈ 24 µM) | MIC (E. coli HH 33779; [9]): 25 mg/L (≈ 48 µM) | MIC (S.aureus Villaluz): 200 mg/L (≈ 384 µM) | MIC [1, 10]: 25 mg/L (≈ 48 µM) | MIC (E.coli SK 12140; [11]): 6.3 mg/L (≈ 12.1 µM) | MIC (Kleb. pneumo. SK 1200; [12]): 3.1 mg/L (≈ 5.96 µM)

Cc1nnc(SCC2=C(C(=O)O)N3C(=O)C(NC(=O)[C@H](N)c4ccc(SCC(=O)O)cc4)C3SC2)s1 (stereo partly drawn) [Compound No. 03616, 7-[D-α-Amino-α-(4'-carboxymethylthiophenyl)acetamido]-3-(5-methyl-1,3,4-thiadiazol-2-ylthiomethyl)-3-cephem-4-carboxylic acid]
ED50 (Klebs.pneumo. 4200; [2]): 16 mg/kg | ED50 (Klebs.pneumo. 4200; [3]): 11.5 mg/kg | ED50 (E.coli 12140; [4]): 14.5 mg/kg | ED50 (E.coli 12140; [5]): 6.2 mg/kg | MIC (Proteus morgani 179; read-out: MIC): 200 mg/L (≈ 352 µM) | MIC (Strep. faecalis HH 34358): 100 mg/L (≈ 176 µM) | MIC (S.aureus SK 23390; [6]): 6.3 mg/L (≈ 11.1 µM) | MIC (Kleb. pneumo. SK 4200; [7]): 1.6 mg/L (≈ 2.82 µM) | MIC (S.aureus HH 127; [8]): 6.3 mg/L (≈ 11.1 µM) | MIC (E. coli HH 33779; [9]): 12.5 mg/L (≈ 22 µM) | MIC (S.aureus Villaluz): 25 mg/L (≈ 44 µM) | MIC [1, 10]: 25 mg/L (≈ 44 µM) | MIC (E.coli SK 12140; [11]): 6.3 mg/L (≈ 11.1 µM) | MIC (Kleb. pneumo. SK 1200; [12]): 3.1 mg/L (≈ 5.46 µM)

Cn1nnnc1SCC1=C(C(=O)O)N2C(=O)C(NC(=O)[C@H](N)c3ccc(OCC(N)=O)cc3)C2SC1 (stereo partly drawn) [Compound No. 32626, 7-[D-α-Amino-α-(4'-carbamylmethoxyphenyl)acetamido]-3-(1-methyl-1,2,3,4-tetrazol-5-ylthiomethyl)-3-cephem-4-carboxylic acid]
ED50 (Klebs.pneumo. 4200; [2]): > 50 mg/kg | ED50 (Klebs.pneumo. 4200; [3]): 15.5 mg/kg | ED50 (E.coli 12140; [4]): > 50 mg/kg | ED50 (E.coli 12140; [5]): 8.7 mg/kg | MIC (Proteus morgani 179; read-out: MIC): 100 mg/L (≈ 187 µM) | MIC (Strep. faecalis HH 34358): 200 mg/L (≈ 374 µM) | MIC (S.aureus SK 23390; [6]): 6.3 mg/L (≈ 11.8 µM) | MIC (Kleb. pneumo. SK 4200; [7]): 6.3 mg/L (≈ 11.8 µM) | MIC (S.aureus HH 127): 12.5 mg/L (≈ 23.4 µM) | MIC (E. coli HH 33779; [9]): 25 mg/L (≈ 46.8 µM) | MIC (S.aureus Villaluz): 50 mg/L (≈ 93.5 µM) | MIC [1]: 12.5 mg/L (≈ 23.4 µM) | MIC (E.coli SK 12140): 12.5 mg/L (≈ 23.4 µM) | MIC (Kleb. pneumo. SK 1200): 12.5 mg/L (≈ 23.4 µM)

Cc1nnc(SCC2=C(C(=O)O)N3C(=O)C(NC(=O)[C@H](N)c4ccc(NCC(=O)O)cc4)C3SC2)s1 (stereo partly drawn) [Compound No. 48536, 7-[D-α-Amino-α-(4'-carboxymethylaminophenyl)acetamido]-3-(5-methyl-1,3,4-thiadiazol-2-ylthiomethyl)-3-cephem-4-carboxylic acid]
ED50 (Klebs.pneumo. 4200; [2]): 12.5 mg/kg | ED50 (Klebs.pneumo. 4200; [3]): 7.8 mg/kg | ED50 (E.coli 12140; [4]): 6.4 mg/kg | ED50 (E.coli 12140; [5]): 2 mg/kg | MIC (Proteus morgani 179; read-out: MIC): 2.5 mg/L (≈ 4.54 µM) | MIC (Strep. faecalis HH 34358): 100 mg/L (≈ 182 µM) | MIC (S.aureus SK 23390; [6]): 12.5 mg/L (≈ 22.7 µM) | MIC (Kleb. pneumo. SK 4200; [7]): 1.6 mg/L (≈ 2.91 µM) | MIC (S.aureus HH 127; [8]): 12.5 mg/L (≈ 22.7 µM) | MIC (E. coli HH 33779; [9]): 6.3 mg/L (≈ 11.4 µM) | MIC (S.aureus Villaluz): 100 mg/L (≈ 182 µM) | MIC [1, 10]: 12.5 mg/L (≈ 22.7 µM) | MIC (E.coli SK 12140; [11]): 3.1 mg/L (≈ 5.63 µM) | MIC (Kleb. pneumo. SK 1200; [12]): 3.1 mg/L (≈ 5.63 µM)

Cc1nnc(SCC2=C(C(=O)O)N3C(=O)C(NC(=O)[C@H](N)c4ccc(OCC(=O)O)cc4)C3SC2)s1 (stereo partly drawn) [Compound No. 59216, 7-[D-α-Amino-α-(4'-carboxymethoxyphenyl)acetamido]-3-(5-methyl-1,3,4-thiadiazol-2-ylthiomethyl)-3-cephem-4-carboxylic acid]
ED50 (Klebs.pneumo. 4200; [2]): 21.5 mg/kg | ED50 (Klebs.pneumo. 4200; [3]): 4.8 mg/kg | ED50 (E.coli 12140; [4]): 25 mg/kg | ED50 (E.coli 12140; [5]): 9.5 mg/kg | MIC (Proteus morgani 179; read-out: MIC): 200 mg/L (≈ 363 µM) | MIC (Strep. faecalis HH 34358): 100 mg/L (≈ 181 µM) | MIC (S.aureus SK 23390; [6]): 25 mg/L (≈ 45.3 µM) | MIC (Kleb. pneumo. SK 4200; [7]): 3.1 mg/L (≈ 5.62 µM) | MIC (S.aureus HH 127; [8]): 6.3 mg/L (≈ 11.4 µM) | MIC (E. coli HH 33779; [9]): 12.5 mg/L (≈ 22.7 µM) | MIC (S.aureus Villaluz): 100 mg/L (≈ 181 µM) | MIC [1, 10]: 12.5 mg/L (≈ 22.7 µM) | MIC (E.coli SK 12140; [11]): 6.3 mg/L (≈ 11.4 µM) | MIC (Kleb. pneumo. SK 1200; [12]): 6.3 mg/L (≈ 11.4 µM)

Cn1nnnc1SCC1=C(C(=O)O)N2C(=O)C(NC(=O)[C@H](N)c3ccc(SCC(=O)O)cc3)C2SC1 (stereo partly drawn) [Compound No. 70326, 7-[D-α-Amino-α-(4'-carboxymethylthiophenyl)acetamido]-3-(1-methyl-1,2,3,4-tetrazol-5-ylthiomethyl)-3-cephem-4-carboxylic acid]
ED50 (Klebs.pneumo. 4200; Klebs.pneumo. 4200, p.o.): 3 mg/kg | ED50 (Klebs.pneumo. 4200; Klebs.pneumo. 4200, s.c.): < 3 mg/kg | ED50 (Klebs.pneumo. 4200; [2]): 4 mg/kg | ED50 (Klebs.pneumo. 4200; [3]): 1.7 mg/kg | ED50 (E.coli 12140; [4]): 11 mg/kg | ED50 (E.coli 12140; [5]): 2.2 mg/kg | MIC (Proteus morgani 179; read-out: MIC): 6.3 mg/L (≈ 11.4 µM)

Cc1nnc(SCC2=C(C(=O)O)N3C(=O)C(NC(=O)[C@H](N)c4ccc(OCC(N)=O)cc4)C3SC2)s1 (stereo partly drawn) [Compound No. 71816, 7-[D-α-Amino-α-(4'-carbamylmethoxyphenyl)acetamido]-3-(5-methyl-1,3,4-thiadiazol-2-ylthiomethyl)-3-cephem-4-carboxylic acid]
ED50 (Klebs.pneumo. 4200; [2]): 6.2 mg/kg | ED50 (Klebs.pneumo. 4200; [3]): 7.5 mg/kg | ED50 (E.coli 12140; [4]): 12.5 mg/kg | ED50 (E.coli 12140; [5]): 4.5 mg/kg | MIC (Proteus morgani 179): 200 mg/L (≈ 363 µM) | MIC (Proteus morgani 179; read-out: MIC): 100 mg/L (≈ 182 µM) | MIC (Strep. faecalis HH 34358): 25 mg/L (≈ 45.4 µM) | MIC (Kleb. pneumo. SK 4200; [7]): 3.1 mg/L (≈ 5.63 µM) | MIC (E. coli HH 33779): 12.5 mg/L (≈ 22.7 µM) | MIC (S.aureus Villaluz): 25 mg/L (≈ 45.4 µM) | MIC (E.coli SK 12140; [11]): 6.3 mg/L (≈ 11.4 µM) | MIC (Kleb. pneumo. SK 1200; [12]): 6.3 mg/L (≈ 11.4 µM)

Cc1nnc(SCC2=C(C(=O)O)N3C(=O)C(NC(=O)[C@H](N)c4ccc(NCC(N)=O)cc4)C3SC2)s1 (stereo partly drawn) [Compound No. 72546, 7-[D-α-Amino-α-(4'-carbamylmethylaminophenyl)acetamido]-3-(5-methyl-1,3,4-thiadiazol-2-ylthiomethyl)-3-cephem-4-carboxylic acid]
MIC (Proteus morgani 179; read-out: MIC): > 200 mg/L | MIC (Strep. faecalis HH 34358): 50 mg/L (≈ 91 µM) | MIC (S.aureus SK 23390): 12.5 mg/L (≈ 22.7 µM) | MIC (Kleb. pneumo. SK 4200): 12.5 mg/L (≈ 22.7 µM) | MIC (S.aureus HH 127): 12.5 mg/L (≈ 22.7 µM) | MIC (E. coli HH 33779; [9]): 50 mg/L (≈ 91 µM) | MIC (S.aureus Villaluz): 50 mg/L (≈ 91 µM) | MIC [1, 10]: 50 mg/L (≈ 91 µM) | MIC (E.coli SK 12140; [11]): 25 mg/L (≈ 45.5 µM) | MIC (Kleb. pneumo. SK 1200; [12]): 25 mg/L (≈ 45.5 µM)

Cc1nnc(SCC2=C(C(=O)O)N3C(=O)C(NC(=O)[C@H](N)c4ccc(SCC(N)=O)cc4)C3SC2)s1 (stereo partly drawn) [Compound No. 86526, 7-[D-α-Amino-α-(4'-carbamylmethylthiophenyl)acetamido]-3-(5-methyl-1,3,4-thiadiazol-2-ylthiomethyl)-3-cephem-4-carboxylic acid]
ED50 (Klebs.pneumo. 4200; [2]): 10 mg/kg | ED50 (Klebs.pneumo. 4200; [3]): 7.2 mg/kg | ED50 (E.coli 12140; [4]): 42 mg/kg | ED50 (E.coli 12140; [5]): 18 mg/kg | MIC (Strep. faecalis HH 34358): 50 mg/L (≈ 88.2 µM) | MIC (S.aureus SK 23390; [6]): 3.1 mg/L (≈ 5.47 µM) | MIC (Kleb. pneumo. SK 4200; [7]): 12.5 mg/L (≈ 22.1 µM) | MIC (S.aureus HH 127; [8]): 6.3 mg/L (≈ 11.1 µM) | MIC (E. coli HH 33779; [9]): 25 mg/L (≈ 44.1 µM) | MIC (S.aureus Villaluz): 25 mg/L (≈ 44.1 µM) | MIC [1, 10]: 100 mg/L (≈ 176 µM) | MIC (E.coli SK 12140; [11]): 25 mg/L (≈ 44.1 µM) | MIC (Kleb. pneumo. SK 1200; [12]): 6.3 mg/L (≈ 11.1 µM)
